Target: T1, Ba/F3-Tel-KDR cells (Homo sapiens, UniProt P35968)
T1 construct: fused on or other part: N-terminal oligomerising part of TEL (ETV6) fused to the tyrosine kinase domain of KDR; P41212 (Transcription factor ETV6)
Assay: Ba/F3-Tel-KDR cell viability inhibition assay (CellTiter-Glo)
Type: cell-based
Details: 48 hour incubation, read-out: IC50 (the source's name)
Excerpt: This assay is a cell-based assay to measure the compound-mediated suppression of Ba/F3 cell proliferation and viability using the Luciferase bioluminescent assay commercially known as CellTiter-Glo™. In this case, a specifically modified cell line, Ba/F3-Tel-KDR is used. These cells are engineered such that intact signaling through the tyrosine kinase domain of KDR is critical for their survival. Inhibition of KDR signaling results in cell death which is quantitated using a cell viability assay. This is a homogeneous bioluminescent assay that yields a rapid, simple and sensitive determination of the number of viable cells in culture by generation of a luminescent signal proportional to the amount of ATP present in cells. KDR inhibitor compound dilutions are incubated with Ba/F3-Tel-KDR cells over a 48 hour period and the resulting cell viability is measured with a suitable luminometer.
This assay is performed in Ba/F3-Tel-KDR cells. Cells are cultured at 37° C. […] Medium is changed the day before the experiment. On Day 1, cells are plated into white solid bottom 384-well plates at 5000 cells/well in 25 μl culture medium. A ten-point dose response curve is prepared as follows: compounds are first serially diluted 3-fold in 100% DMSO, starting from 10 mM. […] 5 μl of diluted compound is added to cell plates with 25 μl culture medium. […] The final concentration of DMSO is 0.1%. Wells without or with cells plus 0.1% DMSO serve as controls. On Day 3, Lyophilized CellTiter-Glo buffer and substrate and the cell plates are first equilibrated to room temperature. Substrate is reconstituted in buffer and 30 μl reconstituted substrate is added to each well. After incubation for 10 minutes at room temperature, plates are read in a luminometer. Compounds are tested in a 10-point dose response and each concentration is run in triplicate on a given plate. Each plate is run in duplicate.

T1 sequence (P35968 whole entry, change not shown, the tested form may be a part): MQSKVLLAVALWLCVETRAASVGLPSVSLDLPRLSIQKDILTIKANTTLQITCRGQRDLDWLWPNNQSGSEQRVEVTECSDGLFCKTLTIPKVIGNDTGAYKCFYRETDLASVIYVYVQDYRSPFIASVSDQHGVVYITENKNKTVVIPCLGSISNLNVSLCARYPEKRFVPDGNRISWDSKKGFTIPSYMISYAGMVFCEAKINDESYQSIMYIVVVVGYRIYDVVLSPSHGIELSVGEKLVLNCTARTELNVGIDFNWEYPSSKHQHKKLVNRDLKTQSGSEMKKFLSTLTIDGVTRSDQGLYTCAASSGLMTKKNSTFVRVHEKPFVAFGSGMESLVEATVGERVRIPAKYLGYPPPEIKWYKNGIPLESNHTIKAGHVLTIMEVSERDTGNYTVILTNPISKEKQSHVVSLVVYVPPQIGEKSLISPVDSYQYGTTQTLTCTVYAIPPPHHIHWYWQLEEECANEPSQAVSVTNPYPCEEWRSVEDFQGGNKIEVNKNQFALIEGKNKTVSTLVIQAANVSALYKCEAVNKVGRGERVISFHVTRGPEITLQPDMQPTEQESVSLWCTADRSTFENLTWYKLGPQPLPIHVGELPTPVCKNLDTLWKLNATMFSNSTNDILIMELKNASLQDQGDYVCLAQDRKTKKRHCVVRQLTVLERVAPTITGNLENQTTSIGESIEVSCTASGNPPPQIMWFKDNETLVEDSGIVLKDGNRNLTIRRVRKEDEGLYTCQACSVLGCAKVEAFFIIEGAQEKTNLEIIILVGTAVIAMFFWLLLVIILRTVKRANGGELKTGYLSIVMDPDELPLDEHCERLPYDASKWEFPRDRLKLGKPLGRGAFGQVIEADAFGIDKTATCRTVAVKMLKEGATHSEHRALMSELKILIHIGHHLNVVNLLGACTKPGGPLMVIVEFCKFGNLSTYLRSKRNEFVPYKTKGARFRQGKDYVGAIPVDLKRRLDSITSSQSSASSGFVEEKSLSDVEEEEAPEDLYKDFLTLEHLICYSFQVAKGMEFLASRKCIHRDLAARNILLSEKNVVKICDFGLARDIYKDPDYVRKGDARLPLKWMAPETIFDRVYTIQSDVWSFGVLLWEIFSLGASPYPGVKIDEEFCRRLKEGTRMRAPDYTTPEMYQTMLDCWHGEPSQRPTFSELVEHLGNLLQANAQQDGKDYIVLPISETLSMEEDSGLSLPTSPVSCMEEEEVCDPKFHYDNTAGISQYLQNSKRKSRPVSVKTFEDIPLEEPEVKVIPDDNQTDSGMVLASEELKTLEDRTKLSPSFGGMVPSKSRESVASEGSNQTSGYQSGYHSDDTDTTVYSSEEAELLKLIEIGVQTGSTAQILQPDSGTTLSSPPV

| Structure (SMILES) | GI50 [nM] |
| --- | --- |
| C[C@H]1Cc2c(ncnc2Oc2ccc3c(ccn3C(=O)Nc3cc(C4CC4)on3)c2)CN1C(=O)C1CC1 [Example 135-D] | < 1 |
| CS(=O)(=O)NC1CCN(Cc2cc(Oc3ccc4c(ccn4C(=O)Nc4cccc(C(F)(F)F)c4)c3)ncn2)CC1 [Example 39, 5-[6-(4-Methanesulfonylamino-piperidin-1-ylmethyl)-pyrimidin-4-yloxy]-indole-1-carboxylic acid (3-trifluoromethyl-phenyl)-amide] | 2 |
| CC(C)Cc1cc(NC(=O)n2ccc3cc(Oc4ncnc5c4CNC5)ccc32)no1 [Example 57-N, 5-(6,7-dihydro-5H-pyrrolo[3,4-d]pyrimidin-4-yloxy)-indole-1-carboxylic acid (5-isobutyl-isoxazol-3-yl)-amide] | 91 |
| CNCc1cc(Oc2ccc3c(cc(C)n3C(=O)Nc3cccc(C(F)(F)F)c3)c2F)ncn1 [Example 19-AP] | 430 |
| CC(C)c1cc(NC(=O)n2ccc3cc(Oc4cc(CNC5CC5)ncn4)ccc32)n[nH]1 [Example 137-I] | 100 |
| CCC(=O)N1Cc2ncnc(Oc3ccc4c(ccn4C(=O)Nc4cc(C5CC5)on4)c3)c2C[C@@H]1C [Example 135-BH] | 2 |
| CC(=O)N1CC2C[C@H]1CN2Cc1cc(Oc2ccc3c(ccn3C(=O)Nc3cccc(C(F)(F)F)c3)c2)ncn1 (stereo in doubt) [Example 98-B, 5-[6-((1R,4S)-5-Acetyl-2,5-diaza-bicyclo[2.2.1]hept-2-ylmethyl)-pyrimidin-4-yloxy]-indole-1-carboxylic acid (3-trifluoromethyl-phenyl)-amide] | < 1 |
| C[C@@H]1Cc2c(ncnc2Oc2ccc3c(ccn3C(=O)Nc3cc(C4(C)CC4)n[nH]3)c2F)CN1 [Example 54-I] | < 1 |
| O=C(Nc1ccc(F)c(C(F)(F)F)c1)n1ccc2cc(Oc3cc(Cn4ncnn4)ncn3)ccc21 [Example 27-A] | 5 |
| C[C@H]1Cc2c(ncnc2Oc2ccc3c(ccn3C(=O)Nc3cc(C4(C(F)(F)F)CC4)on3)c2)CN1CC1CC1 [Example 136-K] | 91 |
| CCN1Cc2ncnc(Oc3ccc4c(ccn4C(=O)Nc4cc(C5(C(F)(F)F)CC5)on4)c3)c2C[C@@H]1C [Example 136-B] | 2 |
| O=C(Nc1cccc(C(F)(F)F)c1)n1ccc2c(F)c(Oc3ncnc4c3CCNC4)ccc21 [Example 33-E] | 9 |
| Cc1cc2cc(Oc3ncnc4c3CNC4)ccc2n1C(=O)Nc1cc(C(C)(C)C)on1 [Example 57-C, 5-(6,7-dihydro-5H-pyrrolo[3,4-d]pyrimidin-4-yloxy)-2-methyl-indole-1-carboxylic acid (5-tert-butyl-isoxazol-3-yl)-amide] | < 1 |
| CCN1Cc2ncnc(Oc3ccc4c(ccn4C(=O)Nc4cc5n(n4)CCC5(C)C)c3)c2C[C@@H]1C [Example 136-I] | 1 |
| C[C@H]1Cc2c(ncnc2Oc2ccc3c(ccn3C(=O)Nc3cc(C4CC4)on3)c2)CN1C [Example 136-J] | 36 |
| CS(=O)(=O)Cc1cc(Oc2ccc3c(ccn3C(=O)Nc3ccc(F)c(C(F)(F)F)c3)c2)ncn1 [Example 86-A, N-(4-fluoro-3-(trifluoromethyl)phenyl)-5-(6-(methylsulfonylmethyl)pyrimidin-4-yloxy)-1H-indole-1-carboxamide] | < 1 |
| O=C(Nc1cccc(C(F)(F)F)c1)N1CCc2cc(Oc3cc(CN4CCOCC4)ncn3)ccc21 [Example 68-F] | 8 |
| O=C(Nc1cccc(C(F)(F)F)c1)n1ccc2cc(Oc3ccnc(CO)c3)ccc21 [Example 25-D, 5-(2-Hydroxymethyl-pyridin-4-yloxy)-indole-1-carboxylic acid (3-trifluoromethylphenyl)-amide] | 3 |
| CC(C)(CO)c1cc(NC(=O)n2ccc3cc(Oc4ncnc5c4CCNC5)ccc32)[nH]n1 [Example 49-B, 5-(5,6,7,8-Tetrahydro-pyrido[3,4-d]pyrimidin-4-yloxy)-indole-1-carboxylic acid [5-(2-hydroxy-1,1-dimethyl-ethyl)-2H-pyrazol-3-yl]-amide] | 22 |
| CNCc1cc(Oc2ccc3c(ccn3C(=O)Nc3cc(C(F)(F)F)n(C)n3)c2)ccn1 [Example 149-F] | 6 |
| CCn1nc(NC(=O)n2ccc3cc(Oc4cc(CNC)ncn4)ccc32)cc1C1CC1 [Example 137-AA] | 2 |
| Cc1nnn(Cc2cc(Oc3ccc4c(ccn4C(=O)Nc4ccc(F)c(C(F)(F)F)c4)c3)ncn2)n1 [Example 27-I] | < 1 |

| Structure (SMILES) | GI50 [nM] |
| --- | --- |
| Cc1c(NC(=O)n2ccc3cc(Oc4ncnc5c4CNC5)ccc32)noc1C1(C)CC1 [Example 134-AM] | 6 |
| CNCc1cc(Oc2ccc3c(ccn3C(=O)Nc3cc(C(F)(F)F)[nH]n3)c2F)ncn1 [Example 59-C, 4-Fluoro-5-(6-methylaminomethyl-pyrimidin-4-yloxy)-indole-1-carboxylic acid (5-trifluoromethyl-1H-pyrazol-3-yl)-amide] | 114 |
| CC(=O)N1Cc2ncnc(Oc3ccc4c(ccn4C(=O)Nc4ccn(C(C)(C)C)n4)c3)c2C[C@@H]1C [Example 135-AA] | < 1 |
| C[C@H]1Cc2c(ncnc2Oc2ccc3c(ccn3C(=O)Nc3cc(C4(C)CC4)n[nH]3)c2F)CN1 [Example 54-H] | 1 |
| O=C(Nc1cccc(C(F)(F)F)c1F)n1ccc2cc(Oc3ncnc4c3CNC4)ccc21 [Example 45-G] | 3 |
| O=C(Nc1cc(-c2ccccc2)[nH]n1)n1ccc2cc(Oc3ncnc4c3CCNC4)ccc21 [Example 51-D] | 11 |
| CCCC(=O)N1Cc2ncnc(Oc3ccc4c(ccn4C(=O)Nc4cc(C5CC5)on4)c3)c2C[C@@H]1C [Example 135-BI] | 3 |
| COCc1cc(Oc2ccc3c(ccn3C(=O)Nc3ccc(F)c(C(F)(F)F)c3)c2)ncn1 [Example 20-C] | 6 |
| O=C(Nc1cccc(C(F)(F)F)c1)n1ccc2cc(Oc3ncnc4c3CN(CCO)C4)ccc21 [Example 64-A, 5-[6-(2-Hydroxy-ethyl)-6,7-dihydro-5H-pyrrolo[3,4-d]pyrimidin-4-yloxy]-indole-1-carboxylic acid (3-trifluoromethyl-phenyl)-amide] | 8 |
| CNCc1cc(Oc2ccc3c(ccn3C(=O)Nc3ccc(OC)c(C(F)(F)F)c3)c2)ncn1 [Example 76-E, N-(4-methoxy-3-(trifluoromethyl)phenyl)-5-(6-((methylamino)methyl)pyrimidin-4-yloxy)-1H-indole-1-carboxamide] | < 1 |
| CNCc1cc(Oc2ccc3c(ccn3C(=O)Nc3cc(C)n(CC(F)(F)F)n3)c2)ncn1 [Example 137-P] | 11 |
| Cn1ccc2c(NC(=O)n3ccc4cc(Oc5ncnc6c5CNC6)ccc43)cccc21 [Example 111-B, 5-(6,7-dihydro-5H-pyrrolo[3,4-d]pyrimidin-4-yloxy)-indole-1-carboxylic acid (1-methyl-1H-indol-4-yl)-amide] | 10 |
| CS(=O)(=O)N1CCc2c(ncnc2Oc2ccc3c(ccn3C(=O)Nc3cccc(C(F)(F)F)c3)c2)C1 [Example 35, 5-(7-Methanesulfonyl-5,6,7,8-tetrahydro-pyrido[3,4-d]pyrimidin-4-yloxy)-indole-1-carboxylic acid (3-trifluoromethyl-phenyl)-amide] | 13 |
| C[C@H]1Cc2c(ncnc2Oc2ccc3c(ccn3C(=O)Nc3ccn(C(C)(C)C)n3)c2)CN1 [Example 54-V] | 63 |
| CS(=O)(=O)Cc1cc(Oc2ccc3c(ccn3C(=O)Nc3cccc(C(F)(F)F)c3)c2F)ncn1 [Example 87-E, 4-Fluoro-5-(6-methanesulfonylmethyl-pyrimidin-4-yloxy)-indole-1-carboxylic acid (3-trifluoromethyl-phenyl)-amide] | 7 |
| Cc1cc2cc(Oc3ncnc4c3CCNC4)ccc2n1C(=O)Nc1cccc(C(F)(F)F)c1 [Example 33-L] | 87 |
| O=C(Nc1ccc(F)c(C(F)(F)F)c1)n1ccc2cc(Oc3cc(CNC4CC4)ncn3)ccc21 [Example 19-Y] | 23 |
| CNCc1cc(Oc2ccc3c(ccn3C(=O)Nc3cc(C4CC4)n(C)n3)c2)ncn1 [Example 137-N] | 14 |
| O=C(Nc1cccc(C(F)(F)F)c1)n1ccc2cc(Oc3ncnc4c3CCN(CCO)C4)ccc21 [Example 96-A, 5-[7-(2-Hydroxy-ethyl)-5,6,7,8-tetrahydro-pyrido[3,4-d]pyrimidin-4-yloxy]-indole-1-carboxylic acid (3-trifluoromethyl-phenyl)-amide] | 1 |
| CNCc1cc(Oc2ccc3c(ccn3C(=O)Nc3cc(C4CC4)n(C4CC4)n3)c2)ncn1 [Example 137-AB] | 1 |
| CNCc1cc(Oc2ccc3c(ccn3C(=O)Nc3cc(C(C)(C)C)[nH]n3)c2)ncn1 [Example 59-B, 5-(6-Methylaminomethyl-pyrimidin-4-yloxy)-indole-1-carboxylic acid (5-tert-butyl-2H-pyrazol-3-yl)-amide] | 4 |
| O=C(Nc1cccc(C(F)(F)F)c1)n1ccc2cc(Oc3cc(CN4CCCC4)ncn3)ccc21 [Example 19-K] | 222 |

From patent publication US8242125B2, “Heterobicyclic carboxamides as inhibitors for kinases” (Novartis AG, priority 2008, dated 2012)
